Test results published in article PMC5903252 (British Journal of Clinical Pharmacology, 2018).
“Also recorded” adds a separate entry of the source.

Assays:
[1] = Plasma pharmacokinetics of BMS-962212 after IV infusion
rabbit models = conditions: preclinical; cited from earlier work
aPTT = assay: Activated partial thromboplastin time; assay type: in vivo, human; conditions: for Mean aPTT (± SEM) / aPTT % Change from baseline: immediately prior to the end of infusion
Renal safety assessment = assay type: in vivo, human
PT/INR = assay: Prothrombin time/international normalized ratio; assay type: in vivo, human; conditions: part A and part B
[2] = part B 1 mg h^−1, Japanese ethnicity (n = 4), geometric mean (CV%)
[3] = part B 1 mg h^−1, Non-Japanese ethnicity (n = 4), geometric mean (CV%)
[4] = part B 3 mg h^−1, Japanese ethnicity (n = 4), geometric mean (CV%)
[5] = part B 3 mg h^−1, Non-Japanese ethnicity (n = 4), geometric mean (CV%)
[6] = part B 9 mg h^−1, Japanese ethnicity (n = 4), geometric mean (CV%)
[7] = part B 9 mg h^−1, Non-Japanese ethnicity (n = 4), geometric mean (CV%)
[8] = part B 20 mg h^−1, Japanese ethnicity (n = 4), geometric mean (CV%)
[9] = part B 20 mg h^−1, Non-Japanese ethnicity (n = 4), geometric mean (CV%)
[10] = part A 2-h IV infusion 1.5 mg h^−1
[11] = part A 2-h IV infusion 4 mg h^−1
[12] = part A 2-h IV infusion 10 mg h^−1
[13] = part A 2-h IV infusion 25 mg h^−1
[14] = part B 5-day IV infusion 1 mg h^−1, Japanese subjects
[15] = part B 5-day IV infusion 1 mg h^−1, non-Japanese subjects
[16] = part B 5-day IV infusion 3 mg h^−1, Japanese subjects
[17] = part B 5-day IV infusion 3 mg h^−1, non-Japanese subjects
[18] = part B 5-day IV infusion 9 mg h^−1, Japanese subjects
[19] = part B 5-day IV infusion 9 mg h^−1, non-Japanese subjects
[20] = part B 5-day IV infusion 20 mg h^−1, Japanese subjects
[21] = part B 5-day IV infusion 20 mg h^−1, non-Japanese subjects
[22] = part A panel 1, 1.5 mg h^−1 2-h IV infusion, peak at 12 h after initiation

CN1CCN(c2cccc3c2CCN(C(=O)/C=C/c2c(-n4cnnn4)ccc(Cl)c2F)[C@@H]3C(=O)Nc2ccc(C(=O)O)cc2)C(=O)C1 [BMS‐962212]
AUC(0-t) ([1]; human, in vivo, iv, 20 mg h^−1): 124000 ng·h/mL | Cmax ([1]; human, in vivo, iv, 20 mg h^−1): 1170 ng/mL | Tmax ([1]; human, in vivo, iv, 20 mg h^−1): 60 h | clearance ([1]; human, in vivo, iv, 20 mg h^−1, CL, part B 5-day IV infusion 20 mg h^−1, geometric mean (CV%)): 317 mL/min | Vd ([1]; human, in vivo, iv, 20 mg h^−1, Vz, part B 5-day IV infusion 20 mg h^−1, geometric mean (CV%)): 219 L | half-life ([1]; human, in vivo, iv, 20 mg h^−1, t1/2, part B 5-day IV infusion 20 mg h^−1, geometric mean (CV%)): 7.65 h | AUC(0-inf) ([1]; human, in vivo, iv, 25 mg h^−1): 2730 ng·h/mL | AUC(0-t) ([1]; human, in vivo, iv, 25 mg h^−1): 1740 ng·h/mL | Cmax ([1]; human, in vivo, iv, 25 mg h^−1): 1120 ng/mL | Tmax ([1]; human, in vivo, iv, 25 mg h^−1): 2 h | clearance ([1]; human, in vivo, iv, 25 mg h^−1, CL, part A 2-h IV infusion 25 mg h^−1, geometric mean (CV%)): 312 mL/min | Vd ([1]; human, in vivo, iv, 25 mg h^−1, Vz, part A 2-h IV infusion 25 mg h^−1, geometric mean (CV%)): 129 L | half-life ([1]; human, in vivo, iv, 25 mg h^−1, t1/2, part A 2-h IV infusion 25 mg h^−1, geometric mean (CV%)): 4.94 h | clearance ([1]; human, in vivo, iv, CL, range across panels, part A 2-h IV infusion): 276 to 358 mL/min | clearance ([1]; human, in vivo, iv, CL, range across panels, part B 5-day IV infusion): 280 to 324 mL/min | Vd ([1]; human, in vivo, iv, Vss, range across panels, 5-day IV infusion): 164 to 218 L | Vd ([1]; human, in vivo, iv, Vz, range across panels, 2-h IV infusion): 72 to 129 L | half-life ([1]; human, in vivo, t1/2 range over all dose groups, part B, Japanese subjects): 6.42 to 8.28 h | half-life ([1]; human, in vivo, t1/2 range over all dose groups, part B, non-Japanese subjects): 6.05 to 8.32 h | Steady‐state concentration [1, 2]: 55.81 (20.5) ng ml ^−1 | Weight‐corrected steady‐state concentration [1, 2]: 4.21 (21.6) kg μg.ml ^−1 | Steady‐state concentration [1, 3]: 49.88 (27.3) ng ml ^−1 | Weight‐corrected steady‐state concentration [1, 3]: 4.34 (15.5) kg μg.ml ^−1 | Steady‐state concentration [1, 4]: 188.03 (17.9) ng ml ^−1 | Weight‐corrected steady‐state concentration [1, 4]: 14.33 (32.9) kg μg.ml ^−1 | Steady‐state concentration [1, 5]: 157.76 (12.9) ng ml ^−1 | Weight‐corrected steady‐state concentration [1, 5]: 14.10 (22.7) kg μg.ml ^−1 | Steady‐state concentration [1, 6]: 439.27 (18.9) ng ml ^−1 | Weight‐corrected steady‐state concentration [1, 6]: 29.60 (18.9) kg μg.ml ^−1 | Steady‐state concentration [1, 7]: 458.34 (18.9) ng ml ^−1 | Weight‐corrected steady‐state concentration [1, 7]: 34.47 (23.5) kg μg.ml ^−1 | Steady‐state concentration [1, 8]: 1161.68 (17.7) ng ml ^−1 | Weight‐corrected steady‐state concentration [1, 8]: 76.07 (30.1) kg μg.ml ^−1 | Steady‐state concentration [1, 9]: 887.21 (23.3) ng ml ^−1 | Weight‐corrected steady‐state concentration [1, 9]: 70.57 (32.4) kg μg.ml ^−1 | dose proportionality ([1]; parts A and B): demonstrated dose proportionality | antithrombotic efficacy and haemostasis (rabbit models): shows antithrombotic efficacy at doses which preserve haemostasis | Mean aPTT (± SEM) (aPTT; [10]): 45.8 ± 2.5 s | aPTT % Change from baseline (aPTT; [10]): 35% | Mean aPTT (± SEM) (aPTT; [11]): 49.2 ± 2.6 s | aPTT % Change from baseline (aPTT; [11]): 51% | Mean aPTT (± SEM) (aPTT; [12]): 53.0 ± 4.2 s | aPTT % Change from baseline (aPTT; [12]): 81% | Mean aPTT (± SEM) (aPTT; [13]): 61.3 ± 3.8 s | aPTT % Change from baseline (aPTT; [13]): 94% | maximum mean aPTT change from baseline (aPTT; part B 20 mg h^−1): 92% | Mean aPTT (± SEM) (aPTT; [14]): 37.7 ± 2.0 s | aPTT % Change from baseline (aPTT; [14]): 31% | Mean aPTT (± SEM) (aPTT; [15]): 42.4 ± 1.8 s | aPTT % Change from baseline (aPTT; [15]): 31% | Mean aPTT (± SEM) (aPTT; [16]): 46.1 ± 1.2 s | aPTT % Change from baseline (aPTT; [16]): 47% | Mean aPTT (± SEM) (aPTT; [17]): 44.0 ± 1.9 s | aPTT % Change from baseline (aPTT; [17]): 49% | Mean aPTT (± SEM) (aPTT; [18]): 52.0 ± 1.3 s | aPTT % Change from baseline (aPTT; [18]): 63% | Mean aPTT (± SEM) (aPTT; [19]): 52.6 ± 6.8 s | aPTT % Change from baseline (aPTT; [19]): 76% | Mean aPTT (± SEM) (aPTT; [20]): 63.0 ± 4.9 s | aPTT % Change from baseline (aPTT; [20]): 92% | Mean aPTT (± SEM) (aPTT; [21]): 57.2 ± 4.0 s | aPTT % Change from baseline (aPTT; [21]): 83% | time to maximal effect on aPTT after initiation of the IV infusion (aPTT; part B, day 1): approximately 2 h | iohexol plasma clearance (GFR) (Renal safety assessment; panel 1A, 1.5 mg h^−1 2-h IV infusion, day −2 vs day 1, and vs placebo): No clinically relevant differences | serum creatinine mean increase (Renal safety assessment; [22]): 0.28 mg/dL | serum creatinine median increase (Renal safety assessment; [22]): 0.35 mg/dL | mean percentage decrease in eGFR (based on serum creatinine) (Renal safety assessment; part A panel 1, 1.5 mg h^−1, 12 h postdose): −22.58% | PT/INR change (PT/INR): did not change; also recorded: no effect on PT/INR
